The values that follow come from patent US11345659B2, “Pipecolic esters for inhibition of the proteasome” (THE BOARD OF REGENTS OF THE UNIVERSY OF TEXAS SYSTEM, priority 2018, dated 2022).

Molecules are shown by their SMILES. pEC50: −log10 of the molar value.

In general, pEC50 refers to −log10 of the EC50, conventionally taken in molar units.

The subject of assay [1] is human cultured androgen-resistant prostate cancer PC3 cells. The experiment in a line: Scratch test with PC3 cells. To be noted: 1 μM, 24 hrs, 0.5 mm gap. The format is cell-based. On the procedure: The “scratch test” was performed with human cultured androgen-resistant prostate cancer PC3 cells. The surface of growing confluent cells was scratched to produce a 0.5 mm wide gap. The scratch was photographed at time 0 hrs. and the cells were cultured with vehicle (DMSO; 1:1000) or with 1 μM of compound 3. After 24 hrs the scratch in control culture was almost entirely closed.

In assay [2] the test system is Human multiple myeloma RPMI 8226 cells. Briefly: Proliferation of RPMI 8226 cells, live cell count by Trypan Blue exclusion. The format is cell-based. On the procedure: Human multiple myeloma RPMI 8226 cells were purchased from American Type Culture Collection (ATCC; Manassas, Va.) and cultured according to ATCC specifications. […] The content of live cells was determined by excluding the Trypan Blue-stained cells. The cells were counted with TC20 Automated Cell Counter (Bio-Rad Laboratories, Hercules, Calif.) and EC50 was calculated with Origin Pro 2017 (OriginLab Corporation, Northampton, Mass.). When indicated, the cells were harvested, washed twice in PBS, resuspended in dilution buffer and stored in −80° C. To prepare crude lysates the thawed preparations were vortexed with glass beads and centrifuged for 5 min 5,000×g (4° C.). The supernate was centrifuged for 20 min 14,000×g. The resulting supernate was used as “crude lysate.” SDS-PAGE was carried in 12% acrylamide, Tris-glycine gels from Invitrogen. Chameleon Duo (Li-Cor) and Rainbow RPN800E (GE Healthcare) molecular weight standards were separated on each gel alongside lysates. The proteins were transferred to nitrocellulose membrane in a semi-dry system. The membranes were probed with specific primary antibodies from Life Technologies (S6, PS6) and Li-Cor (COX IV), and then with secondary antibodies from Li-Cor. In each experiment visualization of S6, PS6 and COX IV was performed on the same membrane with Odyssey Infrared Imaging System (Li-Cor).
The effects of compound 3 observed in vitro prompted its influence on the proliferation of cultured cancer cells to be tested, namely the multiple myeloma RPMI 8226 line. […] Such relatively low EC50, as compared to in vitro determined IC50 values for peptidase activities (2-3 μM; FIG. 3A and FIG. 3B) should come to no surprise. […] The in vitro readout of single peptidase activities is a useful and convenient measure of the catalytic prowess of proteasome. However, especially in the case of allosteric regulators, it may not fully reflect the important structural and functional effects.
Referring to FIG. […] The data are averages (±SD) of three-to-five independent experiments. […]

In the case of `COc1cc(CCCOC(=O)[C@@H]2CCCCN2C(=O)OCc2ccccc2)cc(OC)c1OC` [Compound 3, 1-benzyl 2-(3-(3,4,5-trimethoxyphenyl)propyl) (S)-piperidine-1,2-dicarboxylate], in assay [1], the “closure of scratch (migration and proliferation)” value is “the scratch was still visible”. Also, in assay [2] (RPMI 8226, 0.2 μM, 24 hours, read-out: cell proliferation, % of control), the activity at 0.2 µM is 60 to 65%. In addition, the pEC50 in assay [2] (RPMI 8226, 48 hours, read-out: EC50, content of live cells) was 6.26.
